From ChEMBL document CHEMBL1137672, “Synthesis and pharmacological evaluation of 2-substituted benzo[b]thiophenes as anti-inflammatory and analgesic agents” (Eur J Med Chem, 2009)

Columns and labels:
Rattus norvegicus [1] = experiment: Antiinflammatory against carrageenan-induced paw edema in Sprague-Dawley rat assessed as remaining paw edema at 10 mg/kg, sc administered 30 mins before carrageenan challenge measured after 1 hr by plethysmometer relative to control; format: functional; details: route subcutaneous
Rattus norvegicus [2] = experiment: Analgesic activity in Sprague-Dawley rat assessed as change in latency time required to elicit jumping or hind paw licking at 10 mg/kg, sc administered 1 hr prior testing measured after 2 hrs of post dose by hot plate method relative to basal level; format: functional; details: route subcutaneous
Rattus norvegicus [3] = experiment: Analgesic activity in Sprague-Dawley rat assessed as change in latency time required to elicit jumping or hind paw licking at 10 mg/kg, sc administered 1 hr prior testing measured after 1 hr of post dose by hot plate method relative to basal level; format: functional; details: route subcutaneous
Mus musculus [4] = experiment: Analgesic activity in Swiss albino mouse assessed as inhibition of acetic acid-induced abdominal constriction at 10 mg/kg, sc administered 30 mins prior to acetic acid challenge measured for 30 mins relative to control; format: functional; details: Abdomen, route subcutaneous
Rattus norvegicus [5] = experiment: Antiinflammatory against carrageenan-induced paw edema in Sprague-Dawley rat assessed as remaining paw edema at 10 mg/kg, sc administered 30 mins before carrageenan challenge measured after 2 hrs by plethysmometer relative to control; format: functional; details: route subcutaneous
Rattus norvegicus [6] = experiment: Antiinflammatory against carrageenan-induced paw edema in Sprague-Dawley rat assessed as remaining paw edema at 10 mg/kg, sc administered 30 mins before carrageenan challenge measured after 3 hrs by plethysmometer relative to control; format: functional; details: route subcutaneous
Rattus norvegicus [7] = experiment: Antiinflammatory against carrageenan-induced paw edema in Sprague-Dawley rat assessed as remaining paw edema at 10 mg/kg, sc administered 30 mins before carrageenan challenge measured after 4 hrs by plethysmometer relative to control; format: functional; details: route subcutaneous
Rattus norvegicus [8] = experiment: Antiinflammatory against carrageenan-induced paw edema in Sprague-Dawley rat assessed as remaining paw edema at 25 mg/kg, sc administered 30 mins before carrageenan challenge measured after 3 hrs by plethysmometer relative to control; format: functional; details: route subcutaneous
Rattus norvegicus [9] = experiment: Antiinflammatory against carrageenan-induced paw edema in Sprague-Dawley rat assessed as remaining paw edema at 25 mg/kg, sc administered 30 mins before carrageenan challenge measured after 2 hrs by plethysmometer relative to control; format: functional; details: route subcutaneous
Rattus norvegicus [10] = experiment: Antiinflammatory against carrageenan-induced paw edema in Sprague-Dawley rat assessed as remaining paw edema at 50 mg/kg, sc administered 30 mins before carrageenan challenge measured after 1 hr by plethysmometer relative to control; format: functional; details: route subcutaneous
Rattus norvegicus [11] = experiment: Hepatotoxicity in Sprague-Dawley rat assessed as serum aspartate aminotransferase level at 50 mg/kg, po daily for 1 week by Reitman-Frankel colorimetric procedure; format: toxicity, organism-based; parameters: dose 50 mg/kg, route oral; details: in vivo, 168 h
Rattus norvegicus [12] = experiment: Antiinflammatory against carrageenan-induced paw edema in Sprague-Dawley rat assessed as remaining paw edema at 50 mg/kg, sc administered 30 mins before carrageenan challenge measured after 3 hrs by plethysmometer relative to control; format: functional; details: route subcutaneous
Rattus norvegicus [13] = experiment: Hepatotoxicity in Sprague-Dawley rat assessed as serum alanine aminotransferase level at 50 mg/kg, po daily for 1 week by Reitman-Frankel colorimetric procedure; format: toxicity, organism-based; parameters: dose 50 mg/kg, route oral; details: in vivo, 168 h
Rattus norvegicus [14] = experiment: Gastrointestinal toxicity in Sprague-Dawley rat assessed as gastric mucosal lesion at 50 mg/kg, po daily for 1 week; format: organism-based, Gastric mucosa; parameters: dose 50 mg/kg, route oral; details: in vivo, 168 h
Mus musculus [15] = experiment: Analgesic activity in Swiss albino mouse assessed as inhibition of acetic acid-induced abdominal constriction at 25 mg/kg, sc administered 30 mins prior to acetic acid challenge measured for 30 mins relative to control; format: functional; details: Abdomen, route subcutaneous
Rattus norvegicus [16] = experiment: Antiinflammatory against carrageenan-induced paw edema in Sprague-Dawley rat assessed as remaining paw edema at 25 mg/kg, sc administered 30 mins before carrageenan challenge measured after 4 hrs by plethysmometer relative to control; format: functional; details: route subcutaneous
Rattus norvegicus [17] = experiment: Analgesic activity in Sprague-Dawley rat assessed as latency time required to elicit jumping or hind paw licking at 25 mg/kg, sc administered 1 hr prior testing measured after 2 hrs of post dose by hot plate method; format: functional; details: route subcutaneous
Rattus norvegicus [18] = experiment: Antiinflammatory against carrageenan-induced paw edema in Sprague-Dawley rat assessed as remaining paw edema at 50 mg/kg, sc administered 30 mins before carrageenan challenge measured after 2 hrs by plethysmometer relative to control; format: functional; details: route subcutaneous
Rattus norvegicus [19] = experiment: Antiinflammatory against carrageenan-induced paw edema in Sprague-Dawley rat assessed as remaining paw edema at 50 mg/kg, sc administered 30 mins before carrageenan challenge measured after 4 hrs by plethysmometer relative to control; format: functional; details: route subcutaneous
Rattus norvegicus [20] = experiment: Analgesic activity in Sprague-Dawley rat assessed as change in latency time required to elicit jumping or hind paw licking at 25 mg/kg, sc administered 1 hr prior testing measured after 1 hr of post dose by hot plate method relative to basal level; format: functional; details: route subcutaneous
Rattus norvegicus [21] = experiment: Antiinflammatory against carrageenan-induced paw edema in Sprague-Dawley rat assessed as remaining paw edema at 25 mg/kg, sc administered 30 mins before carrageenan challenge measured after 1 hr by plethysmometer relative to control; format: functional; details: route subcutaneous
Rattus norvegicus [22] = experiment: Analgesic activity in Sprague-Dawley rat assessed as change in latency time required to elicit jumping or hind paw licking at 25 mg/kg, sc administered 1 hr prior testing measured after 2 hrs of post dose by hot plate method relative to basal level; format: functional; details: route subcutaneous

Compound | Activity (Rattus norvegicus [8]) [%] | Activity (Rattus norvegicus [9]) [%] | Activity (Rattus norvegicus [10]) [%] | Activity (Rattus norvegicus [11]) | Activity (Rattus norvegicus [12]) [%] | Activity (Rattus norvegicus [13]) | Activity (Rattus norvegicus [14]) | inhibition in vivo at 25 mg/kg (Mus musculus [15]) [%] | Activity (Rattus norvegicus [16]) [%] | Activity (Rattus norvegicus [17]) [s] | Activity (Rattus norvegicus [18]) [%] | Activity (Rattus norvegicus [19]) [%] | Activity (Rattus norvegicus [20]) [%] | Activity (Rattus norvegicus [21]) [%] | Activity (Rattus norvegicus [22]) [%] | further results
CN1C(C(=O)Nc2ccccn2)=C(O)c2ccccc2S1(=O)=O [PIROXICAM] |  |  |  |  |  |  |  |  |  |  |  |  |  |  |  | Activity (Rattus norvegicus [1]): 35.9%; Activity (Rattus norvegicus [2]): 8.3%; Activity (Rattus norvegicus [3]): 21.4%; inhibition in vivo at 10 mg/kg (Mus musculus [4]): -56.9%; Activity (Rattus norvegicus [5]): 42.9%; Activity (Rattus norvegicus [6]): 51.4%; Activity (Rattus norvegicus [7]): 51.4%
O=C(NNC(=S)Nc1ccccc1)c1cc2cc([N+](=O)[O-])ccc2s1 | 54.6 | 48.1 | 35.7 | Non-toxic | 45.3 | Non-toxic | Non-toxic | -63.4 | 58.7 | 16.66 | 42.7 | 46.2 | 36.5 | 40 |  | 
NNC(=O)Nc1cc2cc([N+](=O)[O-])ccc2s1 | 79 | 71.2 | 45.9 | Non-toxic | 54.3 | Non-toxic | Non-toxic | -43.4 | 80 |  | 45.9 | 56.4 | 19.4 | 59.7 | 7.5 | 
Cc1ccc(/C=N/NC(=O)c2cc3cc([N+](=O)[O-])ccc3s2)o1 | 92.2 | 77.2 | 37.5 | Non-toxic | 41.3 | Non-toxic | Non-toxic | -43.1 | 92 |  | 41.6 | 40.7 | 19.8 | 55.9 | 22.39 | 
O=C(N/N=C/c1c[nH]c2ccccc12)c1cc2cc([N+](=O)[O-])ccc2s1 | 90.1 | 89.1 | 36.9 | Non-toxic | 46.6 | Non-toxic | Non-toxic | 16.9 | 90 | 14.72 | 46.5 | 49.6 | 16.6 | 63.2 |  | 
NNC(=O)c1cc2cc([N+](=O)[O-])ccc2s1 | 55.9 | 51.9 | 38.2 | Non-toxic | 46.3 | Non-toxic | Non-toxic | -88.2 | 55.9 |  | 42.2 | 51.3 | 24.7 | 49.4 | 31.6 | 
